According to patent publication US20210267944A1 (BioXcel Therapeutics, Inc., priority 2018, published 2021):
Several values for one entry are separate records, joined by “and”; a condition that tells them apart may be missing. Equal entries are not always repeated. Entries after “also recorded” stand apart in the source; their conditions may differ. Structures can show the parent of a compound that is named as a salt. Where two headings read alike, the source gives them in different places.

Columns and labels:
[1] = tested on: subjects suffering from schizophrenia; conditions: for RASS values after infusion start: schizophrenia patients, per patient
[2] = human, in vivo
[3] = tested on: agitated subjects with senile dementia of Alzheimer's type; conditions: for RASS score: per subject
Experimental: Clinical evaluation was performed as follows. Patients were screened up to 4 weeks prior to randomization. After obtaining the written informed consent from subjects, subjects were allowed to participate in the study related screening activities. Screening activities included clinical laboratory tests, physical examination, ECG, etc. After completion of all screening related activities, the eligible subjects [male and female subjects 55 to 75 years of age; known cases of mild probable Alzheimer's disease (SDAT) in accordance with NINCDS/ADRDA criteria for diagnosis of Alzheimer's disease with a Mini-Mental State Score of between 20 to 24; RASS score of +1 or +2 on the Day −1 and prior to drug administration on Day 1] were randomized in the study (treatment allocation 5:2). Subjects were housed in the clinic from Day −1 (preferably in the afternoon or evening) to end of study. Additional housing was allowed performed based on the investigator's discretion.
Study drug IV infusion was to be stopped at any time if any of the following occurred: • There was more than 20 mm Hg decrease in systolic or diastolic blood pressure. • There was an isolated drop in Systolic BP<100 mm of Hg. • There was an isolated drop Diastolic BP<60 mm of Hg. • There was a decrease in heart rate of 20 beats per minute or a drop below 50 beats per minute. • Attainment of a RASS of −1 at the end of each 30 minutes infusion period.
All raters were trained in the use of the RASS scale.
Once the participant was drowsy but able to respond to verbal stimulation, the infusion was stopped, and time was recorded.

[4] = tested on: agitated subjects with senile dementia of Alzheimer's type; conditions: human, in vivo
Experimental: Clinical assessments of cognitive functioning, alertness/awareness, balance and reaction time were performed prior to the IV infusion, at the end of infusion until the participant had reached their baseline parameters or, in the judgment of the principal investigator, the participant had reached a stable and acceptable level of arousal.
Time period at which clinical assessment of cognitive functioning, alertness/awareness, balance, and reaction time persist after drowsiness has resolved was assessed. Cognitive functioning, alertness/awareness, balance, and reaction time reached to their baseline level within around 45 minutes after drowsiness was resolved/recovered (see Table 7).

[5] = tested on: healthy, elderly (55-75 years of age) volunteers
Experimental: Subjects in the initial cohorts were initially healthy, elderly (55-75 years of age) volunteers. Subjects in later cohort were elderly volunteers healthy except for having mild probable SDAT. Both sexes were included in all cohorts.
Each infusion rate was administered for 30 minutes. After 30 minutes, the dose was increased by an additional 0.1 mcg/kg/hr until the subject achieved a predetermined level of sedation as assessed by the Richmond Agitation-Sedation Scale (RASS) or a pre-specified reduction in BP and/or HR. The dosing rate was adjusted for subsequent cohorts based on the results of preceding cohorts. Continuous assessment was made of the level of arousal, BP and HR. […] Statistics were descriptive and correlational in terms of pharmacodynamic and pharmacokinetic relationships.
The participants in cohort 1 were designated by subject codes 11XX and 91XX, and those in cohort 2 were designated by subject codes 12XX. Time needed to resolve refers to the time from the cessation of the infusion to the resolution of the pharmacodynamic effect of the drug on either arousal or blood pressure and heart rate.

clinical = conditions: human, in vivo; for concentration at 15 min / concentration at 30 min / concentration at 90 min / concentration at 45 min / concentration at 60 min / concentration at 75 min: Plasma level concentration

Cc1cccc([C@H](C)c2cnc[nH]2)c1C [dexmedetomidine hydrochloride]
Efficacy (Primary/secondary end points): subjects reaching RASS-1 ([1]; Schizophrenia Study): 9/10 RASS-1 | Range of efficacious dose of IV dexmedetomidine hydrochloride ([1]; Schizophrenia Study, continuous infusion): 0.2 to 0.4 µg/kg/h | patients in the treatment arm who achieved a RASS score of at least −1 ([1]; schizophrenia): 9 out of 10 | RASS values after infusion start ([1]; infusion 15 minutes): −2 and −1 | RASS values after infusion start ([1]; infusion 30 minutes): 0 | RASS values after infusion start ([1]; infusion 75 minutes): −1 | RASS values after infusion start ([1]; infusion 90 minutes): 0 | RASS values after infusion start ([1]; infusion […]): 0 | Mean infusion rate ([1]; schizophrenic patients): 0.36 µg/kg/h | Time to reach Cmax, range [2]: 15 to 105 min | Efficacy (Primary/secondary end points): subjects reaching RASS-1 ([3]; Alzheimer's Study): 7/10 RASS-1 | Range of efficacious dose of IV dexmedetomidine hydrochloride ([3]; Alzheimer's Study, continuous infusion): 0.2 to 0.5 µg/kg/h | time after infusion discontinuation at which subjects became alert and remained calm ([3]; SDAT): around 30 minutes | IV infusion rate, range ([3]; SDAT patients): 0.2 to 0.5 µg/kg/h | RASS score ([3]; SDAT patients, 00:00 Hr, listed as Treatment): 2 (5×) and 1 (5×) | RASS score ([3]; SDAT patients, 02:30 Hr): 1 | Total dose, range ([3]; SDAT, extent of exposure): 0.15 to 0.75 µg/kg | Time period for which a calming effect persisted after discontinuation of study drug ([3]; SDAT, n=7): 5 min | Time period for which a calming effect persisted after discontinuation of study drug, Max ([3]; SDAT, n=7): 45 min | Time period for which a calming effect persisted after discontinuation of study drug, Mean ± SD ([3]; SDAT, n=7): 28.6 ± 15.74 min | Time period for which a calming effect persisted after discontinuation of study drug, Median ([3]; SDAT, n=7): 30 min | optimal dose at which a RASS score of −1 was achieved, Max ([3]; SDAT, n=7): 0.5 µg/kg/h | optimal dose at which a RASS score of −1 was achieved, Mean ± Sd (mean infusion rate) ([3]; SDAT, n=7): 0.34 µg/kg/h | optimal dose at which a RASS score of −1 was achieved, Median ([3]; SDAT, n=7): 0.30 µg/kg/h | optimal dose at which a RASS score of −1 was achieved, Min ([3]; SDAT, n=7): 0.2 µg/kg/h | optimal dose at which a RASS score of −1 was achieved, Mode ([3]; SDAT, n=7): 0.30 µg/kg/h | optimal dose at which a RASS score of −1 was achieved, Mean ± Sd (mean infusion rate) ([3]; SDAT, n=7, listed as Test): 0.34 ± 0.098 µg/kg/h | optimal dose at which a RASS score of −1 was achieved, Mean ± Sd (mean infusion rate) ([3]; SDAT, n=7, listed as dexmedetomidine): 0.34 µg/kg/h | subjects who achieved a RASS score of −1 ([3]; SDAT, out of 10 subjects): 7 | Time for cognitive functioning, alertness/awareness, balance, reaction time to reach baseline after drowsiness [4]: 10 min | Time for cognitive functioning, alertness/awareness, balance, reaction time to reach baseline after drowsiness, Max [4]: 90 min | Time for cognitive functioning, alertness/awareness, balance, reaction time to reach baseline after drowsiness, Mean ± SD [4]: 42.9 ± 27.36 min | Time for cognitive functioning, alertness/awareness, balance, reaction time to reach baseline after drowsiness, Median [4]: 45 min | time for cognitive functioning, alertness/awareness, balance, reaction time to reach baseline level after drowsiness resolved [4]: ≤ 45 min | time to mild sedation after starting the dose which produced the desired effect ([5]; Example 1A): ≤ 30 min | subjects in whom mild sedation (RASS score of −1) was evident ([5]; Example 1A, IV infusion 0.1-0.6 mcg/kg/hr): 11/12 | Efficacy (Primary/secondary end points): subjects reaching RASS-1 ([5]; Healthy Volunteers Cohort 1): 6/6 RASS-1 | Range of efficacious dose of IV dexmedetomidine hydrochloride ([5]; Healthy Volunteers Cohort 1, continuous infusion): 0.3 to 0.5 µg/kg/h | Efficacy (Primary/secondary end points): subjects reaching RASS-1 ([5]; Healthy Volunteers Cohort 2): 5/6 RASS-1 | Range of efficacious dose of IV dexmedetomidine hydrochloride ([5]; Healthy Volunteers Cohort 2, continuous infusion): 0.3 to 0.4 µg/kg/h | Endpoint ([5]; healthy elderly volunteers, per subject, endpoint/stopping criterion reached): RASS −2; also recorded: RASS −1 | IV infusion rate at which desired effect/stopping criteria achieved ([5]; healthy elderly volunteers, per subject, rate raised every 30 min): 0.3 mcg/kg/hr (4×) and 0.4 mcg/kg/hr (7×) and 0.5 mcg/kg/hr | effects on blood pressure and/or heart rate at exposure achieving mild sedation ([5]; in vivo): did not produce clinically meaningful effects on blood pressure and/or heart rate | tolerability ([5]; in vivo): well-tolerated | dose required by males compared to females ([5]; p<0.02, Sign test): twice | optimal starting dose ([5]; results of cohorts 1 and 2): 0.3 µg/kg/h | Cmax (clinical): 0.0225 to 0.406 ng/mL | concentration at 15 min (clinical; Patient 1, Treatment, 15 min of infusion): 0.0225 ng/mL | concentration at 30 min (clinical; Patient 1, Treatment): 0.0147 ng/mL | concentration at 90 min (clinical; Patient 4, Treatment): 0.0443 ng/mL | concentration at 15 min (clinical; Patient 11, Treatment, 15 min): 0.041 ng/mL | concentration at 30 min (clinical; Patient 11, Treatment): 0.0629 ng/mL | concentration at 45 min (clinical; Patient 11, Treatment): 0.124 ng/mL | concentration at 60 min (clinical; Patient 11, Treatment): 0.15 ng/mL | concentration at 30 min (clinical; Patient 12, Treatment): 0.0449 ng/mL | concentration at 45 min (clinical; Patient 12, Treatment): 0.0505 ng/mL | concentration at 60 min (clinical; Patient 12, Treatment): 0.109 ng/mL | concentration at 75 min (clinical; Patient 12, Treatment): 0.159 ng/mL | concentration at 90 min (clinical; Patient 12, Treatment): 0.238 ng/mL | concentration at 30 min (clinical; Patient 14, Treatment): 0.0527 ng/mL | concentration at 45 min (clinical; Patient 14, Treatment): 0.0465 ng/mL | concentration at 60 min (clinical; Patient 14, Treatment): 0.406 ng/mL | concentration at 15 min (clinical; Patient 16, Treatment, 15 min): 0.00256 ng/mL | concentration at 30 min (clinical; Patient 16, Treatment): 0.0156 ng/mL | concentration at 45 min (clinical; Patient 16, Treatment): 0.0412 ng/mL | concentration at 60 min (clinical; Patient 16, Treatment): 0.0679 ng/mL | concentration at 75 min (clinical; Patient 16, Treatment): 0.0723 ng/mL | concentration at 15 min (clinical; Patient 17, Treatment, 15 min): 0.0159 ng/mL | concentration at 45 min (clinical; Patient 17, Treatment): 0.0399 ng/mL | concentration at 15 min (clinical; Patient 18, Treatment, 15 min): 0.0484 ng/mL | concentration at 30 min (clinical; Patient 18, Treatment): 0.0545 ng/mL
